According to patent US20240376108A1, “SALT AND CRYSTAL FORM OF PYRAZOLE-CONTAINING POLYCYCLIC DERIVATIVE, AND PREPARATION METHOD THEREFOR AND USE THEREOF” (Shanghai Hansoh Biomedical Co., Ltd., priority 2021, published 2024):

What was measured:
[1] = Solubility experiment in different media; format: physicochemical; conditions: for solubility at 24 h: thermodynamic from solid
Procedure: The vials were placed on a spin mixer overnight at room temperature. After 24 hours, the sample solution was filtered through a 0.45 μm mixed aqueous fiber membrane. The content of the compound in the filtrate was determined by HPLC. [table]

[2] = Hygroscopicity experiment (DVS); format: physicochemical
Method in brief: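 Crystalline salt forms equilibrated with water vapour at a range of relative humidities (DVS). Percentage weight gain at equilibrium recorded.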

[3] = Solid stability experiment (high temperature, high humidity, high temperature and high humidity); format: physicochemical
Procedure: 4.1.1 Experimental objective: To investigate the physical and chemical stability of the crystal form of the compound under the conditions of high temperature, high humidity, as well as high temperature and high humidity, so as to provide a basis for crystal form screening and storage of the crystal form of the compound.
The content of the salt was determined by HPLC using the external standard method, and the change of relevant substances was calculated by using the chromatographic peak area normalization method.

[4] = Pharmacokinetic assay of the salt forms in rats (10 mg/kg); format: in vivo; conditions: SD rats
Procedure: 2.3 Pharmacokinetic assay of the methanesulfonate in rats
2.3.1. Study objective: SD rats were used as test animals. The pharmacokinetic behavior of various salt forms of 2-(2-cyano-5-oxo-8-(trifluoromethyl)pyrazolo[1,5-a]pyrido[3,2-e]pyrimidin-4(5H)-yl)-N-(5-fluoropyridin-2-yl)acetamide was studied in rat body (plasma) by orally administration at a dose of 10 mg/kg.
2.3.2.4 Administration: After an overnight fast, male SD rats (3 rats per group) were administered p.o. with the test compound at a dose of 10 mg/kg and a volume of 10 mL/kg.
2.3.2.5 Sample collection: 0.2 mL of blood was taken from the jugular vein of the rat before administration and at 0, 0.5, 1, 2, 4, 6, 8 and 24 hours after administration. The samples were stored in EDTA-K2 tubes, and centrifuged for 6 minutes at 4° C., 6000 rpm to separate the plasma. The plasma samples were stored at −80° C.
1) 160 μL of acetonitrile was added to 40 μL of the plasma sample for precipitation, and then the mixture was centrifuged at 3500×g for 5 to 20 minutes.
2) After the above process, 100 μL of the supernatant was taken to analyze the concentration of the test compound by LC/MS/MS.
2.3.2.7 Liquid chromatography analysis • Liquid chromatography condition: Shimadzu LC-20AD pump • Mass spectrometry condition: AB Sciex API 4000 mass spectrometer • Chromatographic column: phenomenex Gemiu 5 um C18 50×4.6 mm • Mobile phase: Eluent A was 0.1% formic acid in water, and Eluent B was acetonitrile • Flow rate: 0.8 mL/min • Elution time: 0-4.0 minutes, the eluent is as follows:
The main parameters of pharmacokinetics were calculated by WinNonlin 8.2.

[5] = Thermodynamic stability experiment (polymorphism screening of the methanesulfonate); format: physicochemical; conditions: pulped in solvents at 35° C. for 24 hours, XRPD
Procedure: 6.1 Polymorphism screening of the methanesulfonate of compound 2-(2-cyano-5-oxo-8-(trifluoromethyl)pyrazolo[1,5-a]pyrido[3,2-e]pyrimidin-4(5H)-yl)-N-(5-fluoropyridin-2-yl)acetamide
The mixture was magnetically pulped in a metal bath at 35° C. for 24 hours, and centrifuged. The resulting solid was dried, and the XRPD thereof was determined.

[6] = Cycle 1, target relative humidity 0.0%, 25° C.
[7] = Cycle 1, target relative humidity 10.0%, 25° C.
[8] = Cycle 1, target relative humidity 20.0%, 25° C.
[9] = Cycle 1, target relative humidity 30.0%, 25° C.
[10] = Cycle 1, target relative humidity 40.0%, 25° C.
[11] = Cycle 1, target relative humidity 50.0%, 25° C.
[12] = Cycle 1, target relative humidity 60.0%, 25° C.
[13] = Cycle 1, target relative humidity 70.0%, 25° C.
[14] = Cycle 1, target relative humidity 80.0%, 25° C.
[15] = Cycle 1, target relative humidity 90.0%, 25° C.
[16] = Cycle 1, target relative humidity 95.0%, 25° C.
[17] = Cycle 2, target relative humidity 0.0%, 25° C.
[18] = Cycle 2, target relative humidity 10.0%, 25° C.
[19] = Cycle 2, target relative humidity 20.0%, 25° C.
[20] = Cycle 2, target relative humidity 30.0%, 25° C.
[21] = Cycle 2, target relative humidity 40.0%, 25° C.
[22] = Cycle 2, target relative humidity 50.0%, 25° C.
[23] = Cycle 2, target relative humidity 60.0%, 25° C.
[24] = Cycle 2, target relative humidity 70.0%, 25° C.
[25] = Cycle 2, target relative humidity 80.0%, 25° C.
[26] = Cycle 2, target relative humidity 90.0%, 25° C.
[27] = Cycle 2, target relative humidity 95.0%, 25° C.
[28] = High humidity (92.5% RH), Day 7
[29] = High humidity (92.5% RH), Day 14
[30] = High temperature (60° C.), Day 7
[31] = High temperature (60° C.), Day 14
[32] = High temperature and high humidity (50° C.&75% RH), Day 7
[33] = High temperature and high humidity (50° C.&75% RH), Day 14

CS(=O)(=O)O.N#Cc1cc2n(CC(=O)Nc3ccc(F)cn3)c(=O)c3ccc(C(F)(F)F)nc3n2n1 [Methanesulfonate (crystal form A), 2-(2-cyano-5-oxo-8-(trifluoromethyl)pyrazolo[1,5-a]pyrido[3,2-e]pyrimidin-4(5H)-yl)-N-(5-fluoropyridin-2-yl)acetamide methanesulfonate]
solubility at 24 h ([1]; aqueous buffer, USP Buffer pH 3, room temperature): 4.3 µg/mL | solubility at 24 h ([1]; aqueous buffer, USP Buffer pH 4, room temperature): 3.6 µg/mL | solubility at 24 h ([1]; aqueous buffer, USP Buffer pH 5, room temperature): 3 µg/mL | solubility at 24 h ([1]; aqueous buffer, USP Buffer pH 6, room temperature): 2.4 µg/mL | solubility at 24 h ([1]; aqueous buffer, USP Buffer pH 7, room temperature): 2.2 µg/mL | solubility at 24 h ([1]; aqueous buffer, USP Buffer pH 8, room temperature): 1.8 µg/mL | solubility at 24 h ([1]; fassgf or other biorelevant, FaSSGF, room temperature): 3.3 µg/mL | solubility at 24 h ([1]; pure water, water, H2O, room temperature): 1.9 µg/mL | solubility in the corresponding media compared with crystal form II of the free base ([1]; room temperature, 24 hours, buffers, FaSSGF, FaSSIF, FeSSIF, water): increased by more than four times | solubility at 24 h ([1]; simulated gastric fluid, USP Buffer pH 1, room temperature): 2.3 µg/mL | solubility at 24 h ([1]; simulated gastric fluid, USP Buffer pH 2, room temperature): 2.3 µg/mL | solubility at 24 h ([1]; FaSSIF, room temperature): 7.8 µg/mL | solubility at 24 h ([1]; FeSSIF, room temperature): 11.3 µg/mL | hygroscopicity (Chinese Pharmacopoeia description) ([2]; 25° C., relative humidity 80%): slightly hygroscopic | hygroscopic weight gain ([2]; 80% relative humidity): ≤ 0.5% | % percentage of mass change, Desorption [2, 6]: −0.029% | % percentage of mass change, Sorption [2, 6]: 0.000% | % percentage of mass change, Desorption [2, 7]: 0.030% | % percentage of mass change, Sorption [2, 7]: 0.051% | % percentage of mass change, Desorption [2, 8]: 0.082% | % percentage of mass change, Sorption [2, 8]: 0.096% | % percentage of mass change, Desorption [2, 9]: 0.133% | % percentage of mass change, Sorption [2, 9]: 0.138% | % percentage of mass change, Desorption [2, 10]: 0.190% | % percentage of mass change, Sorption [2, 10]: 0.179% | % percentage of mass change, Desorption [2, 11]: 0.253% | % percentage of mass change, Sorption [2, 11]: 0.222% | % percentage of mass change, Desorption [2, 12]: 0.320% | % percentage of mass change, Sorption [2, 12]: 0.272% | % percentage of mass change, Desorption [2, 13]: 0.395% | % percentage of mass change, Sorption [2, 13]: 0.340% | % percentage of mass change, Desorption [2, 14]: 0.502% | % percentage of mass change, Sorption [2, 14]: 0.446% | % percentage of mass change, Desorption [2, 15]: 0.760% | % percentage of mass change, Sorption [2, 15]: 0.700% | % percentage of mass change, Desorption [2, 16]: 1.109% | % percentage of mass change, Sorption [2, 16]: 1.109% | % percentage of mass change, Desorption [2, 17]: −0.046% | % percentage of mass change, Sorption [2, 17]: −0.029% | % percentage of mass change, Desorption [2, 18]: 0.014% | % percentage of mass change, Sorption [2, 18]: 0.024% | % percentage of mass change, Desorption [2, 19]: 0.067% | % percentage of mass change, Sorption [2, 19]: 0.073% | % percentage of mass change, Desorption [2, 20]: 0.118% | % percentage of mass change, Sorption [2, 20]: 0.118% | % percentage of mass change, Desorption [2, 21]: 0.177% | % percentage of mass change, Sorption [2, 21]: 0.162% | % percentage of mass change, Desorption [2, 22]: 0.241% | % percentage of mass change, Sorption [2, 22]: 0.209% | % percentage of mass change, Desorption [2, 23]: 0.305% | % percentage of mass change, Sorption [2, 23]: 0.263% | % percentage of mass change, Desorption [2, 24]: 0.378% | % percentage of mass change, Sorption [2, 24]: 0.331% | % percentage of mass change, Desorption [2, 25]: 0.480% | % percentage of mass change, Sorption [2, 25]: 0.433% | % percentage of mass change, Desorption [2, 26]: 0.734% | % percentage of mass change, Sorption [2, 26]: 0.675% | % percentage of mass change, Desorption [2, 27]: 1.076% | % percentage of mass change, Sorption [2, 27]: 1.076% | solid stability under high temperature and high humidity ([3]; 50° C.&75% RH, 7 and 14 days): stable | solid stability under high temperature ([3]; 60° C., 7 and 14 days): stable | solid stability under high humidity ([3]; 92.5% RH, 7 and 14 days): stable | % increase of total impurities [3, 28]: <0.1% | % maximum increase of single impurity [3, 28]: <0.1% | % increase of total impurities [3, 29]: <0.1% | % maximum increase of single impurity [3, 29]: <0.1% | % increase of total impurities [3, 30]: <0.2% | % maximum increase of single impurity [3, 30]: <0.1% | % increase of total impurities [3, 31]: <0.1% | % maximum increase of single impurity [3, 31]: <0.1% | % increase of total impurities [3, 32]: <0.1% | % maximum increase of single impurity [3, 32]: <0.1% | % increase of total impurities [3, 33]: <0.1% | % maximum increase of single impurity [3, 33]: <0.1% | exposure AUC and maximum plasma concentration Cmax compared with the free base ([4]; 10 mg/kg): superior | AUC(0-t) ([4]; male, rat, po, p.o. 10 mg/kg, plasma, vehicle 0.5% HPMC, read-out: Area under curve AUC0-t): 25800 ng·h/mL | MRT inf ([4]; male, rat, po, p.o. 10 mg/kg, plasma, vehicle 0.5% HPMC, read-out: Average residence time MRT0-∞): 4.8 h | half-life ([4]; male, rat, po, p.o. 10 mg/kg, plasma, vehicle 0.5% HPMC, read-out: Half life t1/2 (converted)): 2.7 h | Tmax ([4]; male, rat, po, p.o. 10 mg/kg, plasma, vehicle 0.5% HPMC, read-out: Peak time tmax): 4 h | Cmax ([4]; male, rat, po, p.o. 10 mg/kg, plasma, vehicle 0.5% HPMC, read-out: Plasma concentration Cmax): 3320 ng/mL | thermodynamic stability of the crystal form [5]: thermodynamically stable crystal form
